Test [1] has as its target Acetylcholinesterase (Electrophorus electricus) (UniProt O42275). Kind of test: Inhibition of Electrophorus electricus AChE using acetylcholine as substrate by chromatography relative to control. Particulars: concentration not given here.
A further test deals with Acetylcholinesterase (Electrophorus electricus, UniProt O42275). Put plainly: Competitive inhibition of Electrophorus electricus AChE using acetylcholine as substrate by Lineweaver-Burk plot method.

The values below come from ChEMBL document CHEMBL2321709, “Acetylcholinesterase immobilized capillary reactors-tandem mass spectrometry: an on-flow tool for ligand screening” (J Med Chem, 2013).

Sequence of Acetylcholinesterase (O42275 whole entry): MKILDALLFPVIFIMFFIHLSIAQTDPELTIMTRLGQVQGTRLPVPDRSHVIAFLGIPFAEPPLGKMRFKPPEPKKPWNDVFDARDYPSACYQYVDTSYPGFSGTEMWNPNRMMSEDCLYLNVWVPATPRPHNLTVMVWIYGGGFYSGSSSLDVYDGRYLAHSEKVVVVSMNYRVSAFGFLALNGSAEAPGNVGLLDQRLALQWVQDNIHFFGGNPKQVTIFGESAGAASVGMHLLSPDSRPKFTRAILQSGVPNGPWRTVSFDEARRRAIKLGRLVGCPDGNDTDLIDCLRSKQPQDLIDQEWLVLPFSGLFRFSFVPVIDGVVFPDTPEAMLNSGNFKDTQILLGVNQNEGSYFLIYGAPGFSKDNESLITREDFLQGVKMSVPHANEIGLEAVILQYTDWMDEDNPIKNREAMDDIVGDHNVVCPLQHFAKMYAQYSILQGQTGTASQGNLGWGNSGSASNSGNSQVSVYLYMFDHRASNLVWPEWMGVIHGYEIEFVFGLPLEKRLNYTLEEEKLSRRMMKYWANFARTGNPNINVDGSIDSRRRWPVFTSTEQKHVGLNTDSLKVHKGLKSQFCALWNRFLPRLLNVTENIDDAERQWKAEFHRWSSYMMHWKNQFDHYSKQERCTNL
Sequence of Acetylcholinesterase (Electrophorus electricus) (O42275 24-633 limits assumed): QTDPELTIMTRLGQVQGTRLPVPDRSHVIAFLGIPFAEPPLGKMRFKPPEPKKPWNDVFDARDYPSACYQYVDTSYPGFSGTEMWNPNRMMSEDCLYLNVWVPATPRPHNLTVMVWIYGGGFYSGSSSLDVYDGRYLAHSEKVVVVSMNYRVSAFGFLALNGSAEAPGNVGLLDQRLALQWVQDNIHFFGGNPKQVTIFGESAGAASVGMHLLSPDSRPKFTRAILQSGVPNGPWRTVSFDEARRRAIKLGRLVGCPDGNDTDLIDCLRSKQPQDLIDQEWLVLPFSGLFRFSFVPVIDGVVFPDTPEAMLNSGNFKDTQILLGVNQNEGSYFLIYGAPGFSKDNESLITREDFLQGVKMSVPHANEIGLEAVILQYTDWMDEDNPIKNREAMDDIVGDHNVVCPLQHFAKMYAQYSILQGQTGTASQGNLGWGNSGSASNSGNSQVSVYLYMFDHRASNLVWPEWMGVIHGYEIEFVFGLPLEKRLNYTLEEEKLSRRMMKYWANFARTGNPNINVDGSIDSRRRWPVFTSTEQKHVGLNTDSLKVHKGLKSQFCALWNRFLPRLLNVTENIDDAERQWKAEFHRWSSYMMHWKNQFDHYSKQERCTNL

Consider `CCOC(=O)c1cc2ccc(OCCN3CCCCC3)cc2oc1=O`, for which the inhibition (in general, the share of the control response that was lost under treatment) in test [1] was above 80%. On Acetylcholinesterase, the concentration for half-maximal inhibition (IC50) (usually the concentration needed to halve the response being measured) was 0.356 µM and the inhibition constant Ki (as a rule, the equilibrium dissociation constant of an inhibitor or competing ligand from its target) worked out at 0.031 µM.
`O=C(NCCN1CCCCC1)c1cc2ccccc2oc1=O` gave an inhibition in test [1] above 80%. At Acetylcholinesterase, the IC50 was 12.6 µM and the Ki is 13.8 µM.
